Assay results reported in patent publication US20110178104A1, “Anti-Heparin Compounds” (POLYMEDIX INC., priority 2010, published 2011).
Values after ≈ are worked out from the molar mass of the structure shown. Values joined by “and” are separate entries in the source; they are usually repeats but may differ in a detail not shown here. Equal values may be shown once.

Key:
[1] = test system: blood pressure; assay: Hemodynamic responses in the anesthetized rat; type: in vivo; details: anesthetized rat, 8 or 16 mg/kg 10 minute IV infusion after heparin 50 U/kg
Source text: As a key safety issue for cationic compounds is reduction in blood pressure shortly after administration. To address this hemodynamic issue, a medicinal chemistry strategy with literature precedence of introducing carboxylic acid functionality was applied to the salicylamide series of compounds. […] Surgically prepared animals were purchased from Charles River Laboratories, Raleigh, N.C. Animals were anesthetized on the day of experiment with isoflurane (1.8-4%). Blood pressure and heart rate data were collected on a Grass Polygraph recorder. The test articles, vehicle or protamine dosing preparations were administered once to each rat by a 10 minute intravenous infusion three minutes following a single intravenous injection of heparin (50 U/kg). Each animal received a dose volume of 2.0 mL/kg. Blood pressure was recorded prior to treatment for approximately 1 minute and immediately following heparin, immediately following vehicle, test articles or protamine and at 5, 15, 30, and 60 minutes following dosing. The doses of test agent were either 8 mg/kg or 16 mg/kg. The differences in hemodynamic effect at 16 mg/kg were especially profound (FIG. 5).

[2] = test system: tinzaparin; assay: FXa amidolytic assay (Example 10), tinzaparin; details: read-out: Tinzap FXa EC50; tinzaparin 0.1 ug/ml; human antithrombin, bovine Factor Xa
Experimental: (§3) Two μl of test agent are added (range between 0.01 and 23 ug/ml) and incubated for 5 minutes at 23° C. Bovine Factor Xa was added to a final concentration of 0.636 nkat/mL and incubated for a further 10 minutes at 23° C.

[3] = Cytotoxicity colorimetric assay, HepG2; type: cell-based, human; set-up: Cytotoxicity HepG2, percent printed in parentheses after the concentration: concentration or dose not given beside the values; details: human, HepG2 cells, one hour in serum-free media
Summary of the method: (§1)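 HepG2 cells (3×10^4/well, MEM + 10% FBS) and NIH/3T3 cells (2×10^4/well, DMEM + 10% BCS) were exposed to compound for 1 h in serum-free medium. Viability read by tetrazolium-to-formazan bioreduction after return to serum medium; EC50 from a four-parameter logistic fit.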

[4] = test system: Unfractionated heparin; assay: aPTT clotting assay, UFH 0.4 U/mL in plasma (Example 10); type: biochemical; details: unfractionated heparin 0.4 U/mL in plasma; aPTT clotting
Experimental: aPTT clotting Assay: Unfractionated heparin was mixed with plasma at a final concentration of 0.4 U/mL (or concentration which increases aPTT time to between 120 and 300 seconds). […] The ACL Elite Hemostasis analyzer (Beckman Coulter™) was used to add aPTT reagent (HemosIL SynthASil) to supplemented plasma. Clotting was initiated by addition of CaCl2 and time to clot was recorded.

[5] = test system: fondaparinux; assay: FXa amidolytic assay (Example 10), fondaparinux; details: for EC50: read-out: Fondap FXa EC50, fondaparinux 0.02 μg/mL, human antithrombin, bovine Factor Xa
Experimental: as §3

[6] = test system: enoxaparin; assay: FXa amidolytic assay (Example 10), enoxaparin; details: read-out: Enox FXa EC50; enoxaparin 0.1 ug/ml; human antithrombin, bovine Factor Xa
Experimental: as §3

[7] = Cytotoxicity colorimetric assay, NIH/3T3; type: cell-based, mouse; details: mouse, NIH/3T3 cells, one hour in serum-free media
Summary of the method: as §1

[8] = in vitro; type: cell-based, human; details: human, pH 7.4
Summary of the method: (§2)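 Pooled human red cells, washed and diluted from a 0.22% stock suspension in TBS pH 7.4, were shaken with two-fold dilutions (1000 to 0.48 µg/ml) for 1 h at 37 °C. Released hemoglobin in the supernatant was read at OD405. EC50 came from a four-parameter logistic fit, with melittin as positive control.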

[9] = test system: isolated human erythrocytes; assay: cells; type: cell-based; details: for EC50: Homo sapiens, Erythrocyte, 1 h, human RBC, 1 hour at 37° C., read-out: Hemolysis EC50
Summary of the method: as §2

[10] = test system: UFH; assay: FXa amidolytic assay (Example 10), UFH; details: read-out: Heparin FXa uM EC50; UFH 0.03 units/mL; human antithrombin, bovine Factor Xa
Experimental: as §3

[11] = test system: fondaparinux; assay: In vivo neutralization of fondaparinux in the rat
Experimental: Compounds were selected to test fondaparinux neutralization in vivo. Rats were pre-treated with fondaparinux administered by IV injection at 0.5 mg/kg. The rats were then treated with a single IV injection of saline, protamine or the PMX compound. Blood was collected via the orbital sinus from three rats per group at the following time points: pre-dose, 1, 3, 10, 30 and 60 min. Plasma samples were prepared for analysis of anti-factor Xa activity using an AMEX Destiny Plus Coagulation Analyzer.

[12] = test system: HepG2 cells; assay: Cytotoxicity colorimetric assay, HepG2; type: cell-based, human; set-up: Cytotoxicity HepG2, percent printed in parentheses after the concentration: concentration or dose not given beside the values
Summary of the method: as §1

[13] = Coagulation properties via ROTEM; details: at fully efficacious doses
[14] = test system: enoxaparin; assay: In vivo neutralization of enoxaparin in the rat; details: rat, enoxaparin 2 mg/kg IV
Experimental: Compounds were tested for their ability to neutralize enoxaparin coagulation inhibition in rats. Male Sprague-Dawley rats were used in this study (Charles River Laboratories). They were ten-weeks-old at the start of the study and their weights ranged from 319-362 g. Enoxaparin (2 mg/kg) was administered by IV injection to groups of six rats. After 3 min, saline, protamine or a test compound was administered by IV injection. Blood was collected before dosing with enoxaparin, and at 1, 3, 10, 30 and 60 min after dosing with the standard and test compounds. All treatments were dosed in a volume of 1 mL/kg. Blood was collected via the orbital sinus from three rats per group. At each time point, 1 mL of blood was collected from each animal into a single tube. The blood was analyzed using an AMEX Destiny Plus Coagulation Analyzer for activated partial thromboplastin time (APTT) and anti-Factor Xa (low-molecular weight).

[15] = test system: NIH/3T3 cells; assay: Cytotoxicity colorimetric assay, NIH/3T3; type: cell-based, mouse
Summary of the method: as §1

SMILES	hemodynamic response profile [1]	EC50 [2]	EC50 at 1 h [3]	EC50 [4]	EC50 [5]	EC50 [6]	EC50 at 1 h [7]	hemolysis at 1 h [8]	EC50 [9]	EC50 [10]	reduction of Factor Xa (anti-factor Xa) levels after fondaparinux ([11]; fondaparinux 0.5 mg/kg IV, test agent 2 and 5 mg/kg IV)	in vivo efficacy versus fondaparinux (summary) ([11]; in vivo)	Cytotoxicity HepG2, percent printed in parentheses after the concentration ([12]; at the concentration given)	Cytotoxicity HepG2 EC50 ([12]; one hour in serum-free media)	coagulation properties via ROTEM [13]	Potent LMWH-antagonists with superior anti-fondaparinux activity (summary) [5]	neutralization of enoxaparin (aPTT and factor Xa assays, words) [14]	hemolysis and cytotoxicity (summary) [9]	Cytotoxicity 3T3, percent printed in parentheses after the concentration ([15]; at the concentration given)	Cytotoxicity 3T3 EC50 ([15]; one hour in serum-free media)
COc1ccc(NC(=O)[C@H](CCCCN)NC(=O)c2cc(NC(=O)[C@H](CCCCN)NC(=O)c3cc(NC(=O)[C@H](CCCCN)NC(=O)c4cc(NC(=O)[C@@H](N)CCCCN)ccc4OC)ccc3OC)ccc2OC)cc1C(=O)NCCC(=O)O [Compound 261]	did not show an improved hemodynamic effect profile	232 nM and 214 nM	> 1000 µg/mL	1530 nM and 2150 nM	5980 nM and 6260 nM	344 nM and 294 nM	> 1000 µg/mL	–	–	–	–	–	–	–	–	–	–	–	–	–
COc1ccc(NC(=O)[C@H](CCCNC(=N)N)NC(=O)c2cc(NC(=O)[C@H](CCCNC(=N)N)NC(=O)c3cc(NC(=O)[C@H](CCCNC(=N)N)NC(=O)c4cc(NC(=O)[C@@H](N)CCCNC(=N)N)ccc4OC)ccc3OC)ccc2OC)cc1C(=O)NCC(=O)O [Compound 284]	–	138 nM	–	1560 nM	390 nM	144 nM	–	50%	1000 µg/mL (≈ 771 µM)	–	–	–	–	–	–	–	–	–	–	–
COc1ccc(NC(=O)[C@H](CCCNC(=N)N)NC(=O)c2cc(NC(=O)[C@H](CCCNC(=N)N)NC(=O)c3cc(NC(=O)[C@H](CCCNC(=N)N)NC(=O)c4cc(NC(=O)[C@@H](N)CCCNC(=N)N)ccc4OC)ccc3OC)ccc2OCC(=O)O)cc1C(=O)N[C@@H](Cc1c[nH]c2ccccc12)C(N)=O [Compound 311]	–	108 nM and 150 nM	1000 µg/mL (≈ 681 µM)	2540 nM and 1780 nM	90 nM and 154 nM	101 nM and 140 nM	1000 µg/mL (≈ 681 µM)	–	–	0.245 µM	markedly reduced	in vivo efficacy versus fondaparinux	50%	>1000 µg/mL	normal coagulation properties at fully efficacious doses	superior anti-fondaparinux activity	marginally more efficacious than the 3-Arg derivative	non-hemolytic and low cytotoxicity	50%	>1000 µg/mL
COc1ccc(NC(=O)[C@H](CCCNC(=N)N)NC(=O)c2cc(NC(=O)[C@H](CCCNC(=N)N)NC(=O)c3cc(NC(=O)[C@H](CCCNC(=N)N)NC(=O)c4cc(NC(C)=O)ccc4OC)ccc3OC)ccc2OCC(=O)O)cc1C(=O)N[C@@H](Cc1c[nH]c2ccccc12)C(N)=O [Compound 312]	–	169 nM	–	> 10000 nM	120 nM	152 nM	–	25%	1000 µg/mL (≈ 738 µM)	0.295 µM	–	–	–	–	–	–	–	–	–	–
COc1ccc(NC(=O)[C@H](CCCNC(=N)N)NC(=O)c2cc(NC(=O)[C@H](CCCNC(=N)N)NC(=O)c3cc(NC(=O)[C@H](CCCNC(=N)N)NC(=O)c4cc(NC(=O)[C@@H](N)CCCNC(=N)N)ccc4OC)ccc3OCC(=O)O)ccc2OC)cc1C(=O)N[C@@H](Cc1c[nH]c2ccccc12)C(N)=O [Compound 313]	–	115 nM	–	3810 nM	117 nM	107 nM	–	20%	~100 µg/mL (≈ 68.1 µM)	0.196 µM	–	–	–	–	–	–	–	–	–	–
COc1ccc(NC(=O)[C@H](CCCNC(=N)N)NC(=O)c2cc(NC(=O)[C@H](CCCNC(=N)N)NC(=O)c3cc(NC(=O)[C@H](CCCNC(=N)N)NC(=O)c4cc(NC(C)=O)ccc4OC)ccc3OCC(=O)O)ccc2OC)cc1C(=O)N[C@@H](Cc1c[nH]c2ccccc12)C(N)=O [Compound 314]	–	199 nM	–	> 10000 nM	265 nM	208 nM	–	25%	1000 µg/mL (≈ 738 µM)	0.295 µM	–	–	–	–	–	–	–	–	–	–
COc1ccc(NC(=O)[C@@H](CCCNC(=N)N)NC(=O)c2cc(NC(=O)[C@@H](CCCNC(=N)N)NC(=O)c3cc(NC(=O)[C@@H](CCCNC(=N)N)NC(=O)c4cc(NC(=O)[C@H](N)CCC(=O)O)ccc4OC)ccc3OC)ccc2OC)cc1C(N)=O [Compound 322]	–	158 nM	–	2110 nM	417 nM	195 nM	–	50%	1000 µg/mL (≈ 826 µM)	–	–	–	–	–	–	–	–	–	–	–
COc1ccc(NC(=O)[C@@H](CCCNC(=N)N)NC(=O)c2cc(NC(=O)[C@@H](CCCNC(=N)N)NC(=O)c3cc(NC(=O)[C@@H](CCCNC(=N)N)NC(=O)c4cc(NC(=O)[C@H](N)Cc5c[nH]c6ccccc56)ccc4OC)ccc3OC)ccc2OCC(=O)O)cc1C(N)=O [Compound 329]	–	203 nM	–	7910 nM	371 nM	202 nM	–	50%	18 µg/mL (≈ 13.7 µM)	–	–	–	–	–	–	–	–	–	–	–
COc1ccc(NC(=O)[C@H](CCCCN)NC(=O)c2cc(NC(=O)[C@H](CCCCN)NC(=O)c3cc(NC(=O)[C@H](CCCCN)NC(=O)c4cc(NC(=O)[C@@H](N)Cc5c[nH]c6ccccc56)ccc4OC)ccc3OC)ccc2OC)cc1C(=O)N[C@@H](Cc1c[nH]c2ccccc12)C(=O)O [Compound 330]	–	182 nM	–	> 10000 nM	218 nM	169 nM	–	75%	5.4 µg/mL (≈ 3.94 µM)	–	–	–	–	–	–	–	–	–	–	–
COc1ccc(NC(=O)[C@@H](CCCNC(=N)N)NC(=O)c2cc(NC(=O)[C@@H](CCCNC(=N)N)NC(=O)c3cc(NC(=O)[C@@H](CCCNC(=N)N)NC(=O)c4cc(NC(=O)[C@H](N)Cc5c[nH]c6ccccc56)ccc4OC)ccc3OC)ccc2OC)cc1C(=O)N[C@H](Cc1c[nH]c2ccccc12)C(=O)O [Compound 331]	–	184 nM	–	> 10000 nM	161 nM	155 nM	–	50%	~100 µg/mL (≈ 68.7 µM)	–	–	–	–	–	–	–	–	–	–	–
